Legend:
[1] = test system: cerebrocartical tissue slices from cats; test: in vitro cat cerebrocortical tissue slice assay (HCO3^- -stimulated swelling); conditions: Felis catus, racemate
Source text: This assay is described in detail in articles by: Cragoe, E. J., Jr.; Gould, N. P.; Woltersdorf, O. W., Jr.; Ziegler, C.: Bourke, R. S.; Nelson, L. R.; Kimelberg, H. K.; Waldman, J. B.; Popp, A. J.; Sedransk, N. J. Med. Chem. 1982, 25, 567, and by Rourke, R. S.: Kimelberg, H. K.; Daze, M.; Church, G. Neurochem. Res. 1983, 8, 5.
Cat pial surface slices (~0.5 mm thick) were cut from the cerebral convexities using a Stadie-Riggs microtome without any moistening. Each slice was then weighed on a torsion balance and immediately placed in a Warburg flask containing 2 mL incubation medium at room temperature (22° C.).
The basic composition of the incubation medium in mmol/l was: KCl, 27; NaCl, 100; glucose, 10; KH2 PO4, 1.2: MgSO4, 1.2; CaCl2, 1.3; HEPES (N-2-hydroxyethylpiperazine-N'-2-ethanesulfonic acid (Sigma)). This solution was titrated with NaOH to pH 7.8, and saturated with oxygen by bubbling the gas through the solution.
To obtain HCO3^- dependent swelling, a solution of NaHCO3 in the above medium was added from the side-arm of the flask to slices which had been incubated in 2 mL of medium without added HCO3 at 37° C. for 20 minutes to achieve a final concentration of 5 mmol. The slices were then incubated for an additional 40 minutes. For control experiments,0.5 mL of the medium without HCO3^- was similarly added from the side-arm. Inhibitors, when used, were present with the slices throughout the 60 minute incubation period. After 60 minutes, the tissue slices were separated from the medium by careful vacuum filtration, re-weighed, and then homogenized (10% w/v suspension) in 1N perchloric acid and then centrifuged. The supernatant was then assayed for electrolytes as previously described.
The tissue content of electrolytes is always expressed as micromoles per gram of the initial wet weight. Percent swelling was calculated as (final wet weight minus initial wet weight/initial wet weight)×100 and HCO3^- dependent swelling would be the increased swelling of slices due to added HCO3^- in media containing 28-29 mmol K^+. Such HCO3^- stimulated swelling is not seen in medium with a normal K^+ concentration (4 to 5 mmol).
The (1) in vitro cat cerebrocortical tissue slice assay, (2) the in vitro primary rat astrocyte culture assay and (3) the in vivo cat head injury assay. The first assay, the in vitro cat cerebrocortical tissue slice assay has been described by Marshall, L. F.; Shapiro, H. M.; Smith, R. W. In "Seminars in Neurological Surgery: Neural Trauma"; Popp, A. J.; Bourke, R. S.; Nelson, L. R.; Kimelberg, H, K,. Eds.; Raven Press: New York, 1979; p. 347, by Bourke, R. S.; Kimelberg, H, K.; Daze, M. A. in Brain Res. 1978, 154, 196, and by Bourke, R. S.; Kimelberg, H. K,; Nelson, L. R. in Brain Res. 1976, 105, 309. This method constitutes a rapid and accurate method of determining the intrinsic chloride inhibitory properties of the compounds of the invention in the target tissue.
Using in vitro cat cerebrocortical tissue slice assay, described in Example 1, compounds of the present invention can be tested for activity. This test provides the principal in vitro evaluation and consists of a determination of concentration vs. response curve. The addition of HCO3^- to isotonic, K^+ -rich saline-glucose incubation media is known to specifically stimulate the transport of Cl^- coupled with Na^+ and an osmotic equivalent of water in incubating slices of mammalian cerebral cortex. […] After addition of drug to the incubation media, detailed drug concentration-response curves are then obtained. The data are expressed as percent HCO3^- -stimulated swelling vs. drug concentration, from which the concentration of drug providing 50% inhibition of HCO3^- -stimulated swelling (I50 in molarity) is interpolated.
Adult cats of 2-3 kg body weight are employed in tissue slice studies. Prior to sacrifice, the animals are anesthetized with ketamine hydrochloride (Ketaset), 10 mg/kg intramuscularly. […]

[2] = test system: astroglial edema; conditions: cited from earlier work
[3] = test system: clinical cases of head injury; conditions: cited from earlier work
[4] = test system: experimental head injury; conditions: cited from earlier work

| Structure (SMILES) | inhibition at 0.1 µM ([1]; Conc. 10^-7 M) [%] | inhibition at 0.01 µM ([1]; Conc. 10^-8 M) [%] | inhibition at 0.001 µM ([1]; Conc. 10^-9 M) [%] | inhibition at 0.0001 µM ([1]; Conc. 10^-10 M) [%] | inhibition at 10 pM ([1]; Conc. 10^-11 M) [%] | inhibition at 1 pM ([1]; Conc. 10^-12 M) [%] | activity in in vitro assay [2] | reducing mortality in clinical cases of head injury [3] | activity in in vivo assay [4] |
| --- | --- | --- | --- | --- | --- | --- | --- | --- | --- |
| O=C(O)COc1cc2c(c(Cl)c1Cl)C1=CC(=O)CCC1(CCO)C2 (racemic) [Example 2, {[5,6-Dichloro-9a-(2-hydroxyethyl)-3-oxo-2,3,9,9a-tetrahydro-1H-fluoren-7-yl]oxy}acetic acid] | 19 | 92 | 75 | 85 | 53 | 15 |  |  |  |
| C=C(CC)C(=O)c1ccc(OCC(=O)O)c(Cl)c1Cl [ethacrynic acid] |  |  |  |  |  |  | exhibited activity | effective in reducing mortality in clinical cases of head injury | exhibited activity |
